Results reported in patent US10472381B2, “Sialic acid derivatives” (Reinhard Brossmer, priority 2014, dated 2019).
pIC50: −log10 of the molar value.

These compounds were tested against T1, CD22 (Homo sapiens, UniProt P20273) (assay: ELISA-based inhibition assay: inhibition of binding of soluble CD22 to immobilized IgM). Conditions: Table I; relative to reference BPCNeu5Ac (rIP = 1).
T1 construct: The soluble CD22 protein was expressed in the CHO-Lec1 cell line; made in house; host or cells: CHO-Lec1
T1 sequence (P20273 20-687 limits assumed): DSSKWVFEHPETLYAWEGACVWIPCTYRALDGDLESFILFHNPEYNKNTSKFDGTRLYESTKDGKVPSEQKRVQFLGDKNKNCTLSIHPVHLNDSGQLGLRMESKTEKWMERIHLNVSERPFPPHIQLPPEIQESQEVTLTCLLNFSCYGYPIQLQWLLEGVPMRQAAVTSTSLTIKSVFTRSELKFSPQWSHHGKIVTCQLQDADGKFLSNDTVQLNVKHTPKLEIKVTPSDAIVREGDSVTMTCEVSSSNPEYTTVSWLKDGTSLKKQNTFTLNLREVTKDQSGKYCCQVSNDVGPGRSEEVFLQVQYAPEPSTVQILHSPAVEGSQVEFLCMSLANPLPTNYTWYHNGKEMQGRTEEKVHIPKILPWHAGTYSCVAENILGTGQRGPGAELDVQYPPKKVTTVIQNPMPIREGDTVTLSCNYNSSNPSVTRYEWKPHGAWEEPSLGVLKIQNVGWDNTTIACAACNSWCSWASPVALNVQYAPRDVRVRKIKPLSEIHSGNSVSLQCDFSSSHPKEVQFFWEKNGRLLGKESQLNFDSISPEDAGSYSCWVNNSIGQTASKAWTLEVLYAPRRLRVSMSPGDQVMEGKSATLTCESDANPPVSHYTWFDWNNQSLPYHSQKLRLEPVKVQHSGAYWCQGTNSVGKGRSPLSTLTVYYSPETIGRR
Protocol: The biological activity of the substances was determined in an ELISA-based inhibition assay as described in “Eur. J. Immunol. 2012, 42, 2792-2802”. The sialic acid derivatives of the formula (I) inhibit the binding of soluble CD22 to immobilized IgM in proportion to their affinity for CD22. The soluble CD22 protein was expressed in the CHO-Lec1 cell line and isolated as described by “Eur. J. Immunol. 2012, 42, 2792-2802”. […] The increase in affinity is reported as rIP (relative inhibitory affinity).

Going from `CC(=O)N[C@H]1[C@H]([C@H](O)[C@H](O)CNC(=O)c2ccc(-c3ccccc3)cc2)O[C@@](OCCCSCCC(=O)[O-])(C(=O)[O-])C[C@@H]1OS(=O)(=O)[O-].[Na+].[Na+].[Na+]` [Compound 20] to `CC(=O)N[C@H]1[C@H]([C@H](O)[C@H](O)CNC(=O)c2ccc(-c3ccc(F)cc3)cc2)O[C@@](OCCCCCC(=O)[O-])(C(=O)[O-])C[C@@H]1NS(=O)(=O)[O-].[Na+].[Na+].[Na+]` [Compound 37], the “rIP (relative inhibitory potency)” value falls from 3130 to 405.

With `CO[C@]1(C(=O)[O-])C[C@H](O)[C@@H](NC(C)=O)[C@H]([C@H](O)[C@H](O)CNC(=O)c2ccc(-c3ccccc3)cc2)O1.[Na+]` [BPC Neu5 Ac, reference compound] the “rIP (relative inhibitory potency)” value was 1.

Same assay, conditions: Table I; soluble CD22 binding to immobilized IgM

Compared with `CC(=O)N[C@H]1[C@H]([C@H](O)[C@H](O)CNC(=O)c2ccc(-c3ccccc3)cc2)O[C@@](OCCCSCCC(=O)O)(C(=O)O)C[C@@H]1NC(=O)OC(C)(C)C` [Compound 29], `CC(=O)N[C@H]1[C@H]([C@H](O)[C@H](O)CNC(=O)c2ccc(-c3ccccc3)cc2)O[C@@](OCCCSCCC(=O)[O-])(C(=O)[O-])C[C@@H]1OS(=O)(=O)[O-].[Na+].[Na+].[Na+]` [Compound 20] is 1.63 log units higher in pIC50: 7.07 for the first, 8.70 for the second. The second is the more potent here.

First: CC(=O)N[C@H]1[C@H]([C@H](O)[C@H](O)CNC(=O)c2ccc(-c3ccc(F)cc3)cc2)O[C@@](OCCCCCC(=O)[O-])(C(=O)[O-])C[C@@H]1NS(=O)(=O)[O-].[Na+].[Na+].[Na+] [Compound 37]
Second: CO[C@]1(C(=O)[O-])C[C@H](O)[C@@H](NC(C)=O)[C@H]([C@H](O)[C@H](O)CNC(=O)c2ccc(-c3ccccc3)cc2)O1.[Na+] [BPC Neu5 Ac, reference compound]
The pIC50 of the first is 2.61 log units higher: 7.82 for the first, 5.21 for the second.

With `CCC(=O)N[C@@H]1[C@@H](NC(C)=O)[C@H]([C@H](O)[C@H](O)CNC(=O)c2ccc(-c3ccccc3)cc2)O[C@@](OCCCCCC(=O)O)(C(=O)O)[C@H]1O` [Compound 10] the pIC50 was 8.22.

Same assay, conditions: Table II; relative to reference compound 10 co-tested in the same assay (rIP = 1)

First: CC(=O)N[C@@H]1[C@@H](NC(=O)CCCl)[C@H](O)[C@](OCCCCCC(=O)[O-])(C(=O)[O-])O[C@H]1[C@H](O)[C@H](O)CNC(=O)c1ccc(-c2ccccc2)cc1.[Na+].[Na+] [Compound 46]
Second: CC(=O)N[C@@H]1[C@@H](NC(=O)CF)[C@H](O)[C@](OCCCCCC(=O)[O-])(C(=O)[O-])O[C@H]1[C@H](O)[C@H](O)CNC(=O)c1ccc(-c2ccccc2)cc1.[Na+].[Na+] [Compound 43]
The rIP of the first is higher: 0.84 for the first, 0.25 for the second.

Compared with `COc1cccc(C(=O)N[C@@H]2[C@@H](NC(C)=O)[C@H]([C@H](O)[C@H](O)CNC(=O)c3ccc(-c4ccccc4)cc3)O[C@@](OCCCCCC(=O)[O-])(C(=O)[O-])[C@H]2O)c1.[Na+].[Na+]` [Compound 49], `CC(=O)N[C@@H]1[C@@H](NC(=O)c2cccc(C)c2)[C@H](O)[C@](OCCCCCC(=O)[O-])(C(=O)[O-])O[C@H]1[C@H](O)[C@H](O)CNC(=O)c1ccc(-c2ccccc2)cc1.[Na+].[Na+]` [Compound 50] is higher in rIP: 0.34 for the first, 0.51 for the second.

First: CC(=O)N[C@@H]1[C@@H](NC(=O)c2ccccc2)[C@H](O)[C@](OCCCCCC(=O)[O-])(C(=O)[O-])O[C@H]1[C@H](O)[C@H](O)CNC(=O)c1ccc(-c2ccccc2)cc1.[Na+].[Na+] [Compound 48]
Second: CC(=O)N[C@@H]1[C@@H](NC(=O)c2ccccc2Cl)[C@H](O)[C@](OCCCCCC(=O)[O-])(C(=O)[O-])O[C@H]1[C@H](O)[C@H](O)CNC(=O)c1ccc(-c2ccccc2)cc1.[Na+].[Na+] [Compound 52]
The rIP of the first is higher: 0.93 for the first, 0.12 for the second.

Going from `CC(=O)N[C@@H]1[C@@H](NC(=O)C(C)C)[C@H](O)[C@](OCCCCCC(=O)[O-])(C(=O)[O-])O[C@H]1[C@H](O)[C@H](O)CNC(=O)c1ccc(-c2ccccc2)cc1.[Na+].[Na+]` [Compound 39] to `CC(=O)N[C@@H]1[C@@H](NC(=O)CN(C)C)[C@H](O)[C@](OCCCCCC(=O)[O-])(C(=O)[O-])O[C@H]1[C@H](O)[C@H](O)CNC(=O)c1ccc(-c2ccccc2)cc1.[Na+].[Na+]` [Compound 47], the rIP falls from 0.70 to 0.18.

In the case of `CC(=O)N[C@@H]1[C@@H](NC(=O)c2ccccc2C)[C@H](O)[C@](OCCCCCC(=O)[O-])(C(=O)[O-])O[C@H]1[C@H](O)[C@H](O)CNC(=O)c1ccc(-c2ccccc2)cc1.[Na+].[Na+]` [Compound 51], the rIP was 0.13.

Same assay, conditions: Table III; relative to reference compound 17 co-tested in the same assay (rIP = 1)

First: CC(=O)N[C@H]1[C@H]([C@H](O)[C@H](O)CNC(=O)c2ccc(-c3ccccc3)cc2)O[C@@](OCCCCCC(=O)[O-])(C(=O)[O-])C[C@@H]1NC(=O)c1ccccc1.[Na+].[Na+] [Compound 53]
Second: CC(=O)N[C@H]1[C@H]([C@H](O)[C@H](O)CNC(=O)c2ccc(-c3ccccc3)cc2)O[C@@](OCCCCCC(=O)[O-])(C(=O)[O-])C[C@@H]1NC(=O)OCc1ccccc1.[Na+].[Na+] [Compound 66]
The rIP of the first is lower: 1.1 for the first, 1.3 for the second.

Compared with `CC(=O)N[C@H]1[C@H]([C@H](O)[C@H](O)CNC(=O)c2ccc(-c3ccccc3)cc2)O[C@@](OCCCCCC(=O)[O-])(C(=O)[O-])C[C@@H]1NC(=O)c1ccc(F)cc1.[Na+].[Na+]` [Compound 60], `COc1ccc(C(=O)N[C@H]2C[C@](OCCCCCC(=O)[O-])(C(=O)[O-])O[C@@H]([C@H](O)[C@H](O)CNC(=O)c3ccc(-c4ccccc4)cc3)[C@@H]2NC(C)=O)cc1.[Na+].[Na+]` [Compound 63] is lower in rIP: 2.1 for the first, 0.27 for the second.

Going from `CC(=O)N[C@H]1[C@H]([C@H](O)[C@H](O)CNC(=O)c2ccc(-c3ccccc3)cc2)O[C@@](OCCCCCC(=O)[O-])(C(=O)[O-])C[C@@H]1NC(=O)c1cccs1.[Na+].[Na+]` [Compound 56] to `CC(=O)N[C@H]1[C@H]([C@H](O)[C@H](O)CNC(=O)c2ccc(-c3ccccc3)cc2)O[C@@](OCCCCCC(=O)[O-])(C(=O)[O-])C[C@@H]1NC(=O)c1cnccn1.[Na+].[Na+]` [Compound 55], the rIP falls from 3.6 to 2.7.

With `CC(=O)N[C@H]1[C@H]([C@H](O)[C@H](O)CNC(=O)c2ccc(-c3ccccc3)cc2)O[C@@](OCCCCCC(=O)[O-])(C(=O)[O-])C[C@@H]1NC(=O)CC1NC(=O)NC1=O.[Na+].[Na+]` (stereo partly drawn) [Compound 58] the rIP was 3.4.

Same assay, conditions: Table IV; relative to reference compound 66 co-tested in the same assay (rIP = 1)

Compared with `CC(=O)N[C@H]1[C@H]([C@H](O)[C@H](O)CNC(=O)c2ccc(-c3ccccc3)nc2)O[C@@](OCCCCCC(=O)[O-])(C(=O)[O-])C[C@@H]1NC(=O)OCc1ccccc1.[Na+].[Na+]` [Compound 74], `CC(=O)N[C@H]1[C@H]([C@H](O)[C@H](O)CNC(=O)c2cnc(-c3ccccc3)nc2)O[C@@](OCCCCCC(=O)[O-])(C(=O)[O-])C[C@@H]1NC(=O)OCc1ccccc1.[Na+].[Na+]` [Compound 73] is higher in rIP: 0.20 for the first, 0.23 for the second.

Compared with `CC(=O)N[C@H]1[C@H]([C@H](O)[C@H](O)CNC(=O)c2ccc(-c3ccccc3F)cc2)O[C@@](OCCCCCC(=O)[O-])(C(=O)[O-])C[C@@H]1NC(=O)OCc1ccccc1.[Na+].[Na+]` [Compound 68], `COc1ccccc1-c1ccc(C(=O)NC[C@@H](O)[C@@H](O)[C@@H]2O[C@@](OCCCCCC(=O)[O-])(C(=O)[O-])C[C@H](NC(=O)OCc3ccccc3)[C@H]2NC(C)=O)cc1.[Na+].[Na+]` [Compound 69] is higher in rIP: 0.76 for the first, 0.83 for the second.

`CC(=O)N[C@H]1[C@H]([C@H](O)[C@H](O)CNC(=O)c2ccc(-c3ccc(O)cc3)cc2)O[C@@](OCCCCCC(=O)[O-])(C(=O)[O-])C[C@@H]1NC(=O)OCc1ccccc1.[Na+].[Na+]` [Compound 67] and `CC(=O)N[C@H]1[C@H]([C@H](O)[C@H](O)CNC(=O)c2ccc(-c3ccccc3)cc2)O[C@@](OCCCCCC(=O)[O-])(C(=O)[O-])C[C@@H]1NC(=O)OCc1ccccc1.[Na+].[Na+]` [Compound 66] are the same in rIP: 1.0 for the first, 1 for the second.

Compared with `CC(=O)N[C@H]1[C@H]([C@H](O)[C@H](O)CNC(=O)Cc2ccc3ccccc3c2)O[C@@](OCCCCCC(=O)[O-])(C(=O)[O-])C[C@@H]1NC(=O)OCc1ccccc1.[Na+].[Na+]` [Compound 72], `CC(=O)N[C@H]1[C@H]([C@H](O)[C@H](O)CNC(=O)c2ccc(-c3cccs3)cc2)O[C@@](OCCCCCC(=O)[O-])(C(=O)[O-])C[C@@H]1NC(=O)OCc1ccccc1.[Na+].[Na+]` [Compound 70] is lower in rIP: 0.91 for the first, 0.88 for the second.

In the case of `CC(=O)N[C@H]1[C@H]([C@H](O)[C@H](O)CNC(=O)c2ccc(-c3cccs3)s2)O[C@@](OCCCCCC(=O)[O-])(C(=O)[O-])C[C@@H]1NC(=O)OCc1ccccc1.[Na+].[Na+]` [Compound 71], the rIP was 0.28.
